Results reported in patent US20220249591A1, “COMPOSITION FOR THE TREATMENT OF EMOTIONAL DISORDERS” (priority 2019, published 2022).
Marks after values point to notes of the source that are not given here.

Assays:
Format in all cases: in vivo
[1] = system: 6-month-old stressed mice (UCMS); assay: Open field test (anxiety behavior) in UCMS-stressed mice; details: induced model (UCMS) mice, n = 12, after 21 days of daily oral gastric intubation (glutamine 24 mg, curcuma extract 1.2 mg, L. rhamnosus GG 0.120 mg per mouse); clomipramine 10 mg/kg intraperitoneal; 5 min session
Experimental: The solutions were administered orally by gastric intubation to mice (1 tube-feed per day).
The preparation of the solutions is performed extemporaneously and the administration is performed in the morning. During the behavioral sessions, the solutions are administered one hour before the start of the session. The gastric incubation always takes place in a different room from the one in which the behavioral test is performed.
In order to evaluate the results obtained with the solutions, one group of mice received a parenteral administration of a tricyclic antidepressant (clomipramine). The mice were divided into independent groups according to the following treatments:
For each group, the administration of the various solutions lasts 21 consecutive days (3 weeks). The behavioral tests are performed 4 weeks after induction of the model (“elevated plus maze” and “tail suspension”) and 3 weeks after the daily intubations (“open field” and “forced swim”).
The open field test is a circular arena (ø 1 m) surrounded by an opaque wall 25 cm tall placed in a room with uniform lighting of 70 lux. The mice are placed facing the wall at the periphery of the arena and can explore freely for 5 minutes. The area of the open field is practically divided into a peripheral zone (12 cm wide) and a central zone (the remaining area of the arena). The time (in seconds) spent in the central zone is automatically noted by videotracking. The more time a mouse spends in the central zone, the less anxious it is.
The anxiety behavior was evaluated by means of the open field test. The mean time spent by the mice at the center of the apparatus is measured.

[2] = system: intestinal microbiota of the stressed mice; assay: Composition of the fecal microbiota by analysis of the 16S rRNA; details: before vs after treatment, relative to placebo group
Experimental: The composition of the microbiota of the animals was analyzed in order to determine the influence of the formula on the bacterial composition of the fecal microbiota of the stressed mice and to compare it with the influence of the drug or of the placebo.
The animals' feces were sampled in order for a DNA extraction to be performed (Zymo Research based kits). The V3-V4 regions of the 16S rRNA gene are amplified and sequencing is performed on an ILLUMINA MiSeq system using the 2*250 bp mode. Sequence analysis is performed after correction using SPAdes ([…]) and regrouping is performed using PEAR (Zhang J. et al. Bioinformatics 2014; 30(5): 614-20). The OTUs (Operational Taxonomic Units) are identified with the Vsearch tool (Rognes T. et al. Peer J., 2016; 4: e2584), the taxonomic classification arising therefrom was performed by means of the RDP (Ribosomal Database Project) database.
The majority of the diversity studies based on 16S rDNA define the OTUs as being sets of sequences having at least 97% identity with each other. The OTUs are, in point of fact, the unit for measuring the specific richness in microbial ecology.
The statistical analyses were performed using the R program (Team RDC. R: A Language and Environment for Statistical Computing. 2012, Austria: R Foundation for Statistical Computing) and various packets (Ade4, Vegan). […]

[3] = system: 6-month-old stressed mice (UCMS); assay: Forced swim test (Porsolt; depressive behavior) in UCMS-stressed mice
Experimental: The solutions were administered orally by gastric intubation to mice (1 tube-feed per day). The preparation of the solutions is performed extemporaneously and the administration is performed in the morning. During the behavioral sessions, the solutions are administered one hour before the start of the session. The gastric incubation always takes place in a different room from the one in which the behavioral test is performed. […] The mice were divided into independent groups according to the following treatments: For each group, the administration of the various solutions lasts 21 consecutive days (3 weeks). The behavioral tests are performed 4 weeks after induction of the model (“elevated plus maze” and “tail suspension”) and 3 weeks after the daily intubations (“open field” and “forced swim”). The forced swim test (Porsolt) is a test commonly used for evaluating depressive behavior in mice. This test is based on behavioral despair. […] An animal displaying depressive behaviour will spend more time immobile than the non-depressive control mouse. After the session, the animal is dried and placed under warm light. Three parameters for evaluating the depressive behaviour are noted: the time spent swimming, the time spent climbing and the time spent immobile for each animal and also their respective percentage.

[4] = induced model (UCMS) mice, n = 12, after 21 days of daily oral gastric intubation, clomipramine 10 mg/kg intraperitoneal, 6 min session

Row | Molecule | Open field test Mean (seconds): time spent in the central zone [1] [s] | Beta-diversity of the intestinal microbiota (PCoA), change of microbiotal profile, in words [2] | Forced swim test swimming time, effect in words ([3]; compared with the other groups, 21 days treatment) | Forced swim test Climbing (dry) [3, 4] | Forced swim test Immobility (dry) [3, 4] | Forced swim test Swimming (dry) [3, 4] [s]
1 | CN(C)CCCN1c2ccccc2CCc2ccc(Cl)cc21 [Clomipramine, reference compound] | 56.8 | would stabilize the dysbiosis induced by the 4 weeks of stress relative to the placebo group | spending more time swimming when compared with the other groups |  |  | 
2 | NC(=O)CC[C@H](N)C(=O)O [Glutamine] | 42.9 |  |  |  |  | 
3 | Lactobacillus rhamnosus GG | 41.6 |  |  | 113.5* s | 106.8* s | 139.8
